Data published in paper PMC6101970 (Oncogene, 2018).

Target: ATR/ATRIP (human) (Homo sapiens, UniProt Q13535)
Experiment: HTRF kinase assay, GST-cMyc-p53 Ser15 phosphorylation
Type: biochemical

Sequence of ATR/ATRIP (human) (Q13535 whole entry): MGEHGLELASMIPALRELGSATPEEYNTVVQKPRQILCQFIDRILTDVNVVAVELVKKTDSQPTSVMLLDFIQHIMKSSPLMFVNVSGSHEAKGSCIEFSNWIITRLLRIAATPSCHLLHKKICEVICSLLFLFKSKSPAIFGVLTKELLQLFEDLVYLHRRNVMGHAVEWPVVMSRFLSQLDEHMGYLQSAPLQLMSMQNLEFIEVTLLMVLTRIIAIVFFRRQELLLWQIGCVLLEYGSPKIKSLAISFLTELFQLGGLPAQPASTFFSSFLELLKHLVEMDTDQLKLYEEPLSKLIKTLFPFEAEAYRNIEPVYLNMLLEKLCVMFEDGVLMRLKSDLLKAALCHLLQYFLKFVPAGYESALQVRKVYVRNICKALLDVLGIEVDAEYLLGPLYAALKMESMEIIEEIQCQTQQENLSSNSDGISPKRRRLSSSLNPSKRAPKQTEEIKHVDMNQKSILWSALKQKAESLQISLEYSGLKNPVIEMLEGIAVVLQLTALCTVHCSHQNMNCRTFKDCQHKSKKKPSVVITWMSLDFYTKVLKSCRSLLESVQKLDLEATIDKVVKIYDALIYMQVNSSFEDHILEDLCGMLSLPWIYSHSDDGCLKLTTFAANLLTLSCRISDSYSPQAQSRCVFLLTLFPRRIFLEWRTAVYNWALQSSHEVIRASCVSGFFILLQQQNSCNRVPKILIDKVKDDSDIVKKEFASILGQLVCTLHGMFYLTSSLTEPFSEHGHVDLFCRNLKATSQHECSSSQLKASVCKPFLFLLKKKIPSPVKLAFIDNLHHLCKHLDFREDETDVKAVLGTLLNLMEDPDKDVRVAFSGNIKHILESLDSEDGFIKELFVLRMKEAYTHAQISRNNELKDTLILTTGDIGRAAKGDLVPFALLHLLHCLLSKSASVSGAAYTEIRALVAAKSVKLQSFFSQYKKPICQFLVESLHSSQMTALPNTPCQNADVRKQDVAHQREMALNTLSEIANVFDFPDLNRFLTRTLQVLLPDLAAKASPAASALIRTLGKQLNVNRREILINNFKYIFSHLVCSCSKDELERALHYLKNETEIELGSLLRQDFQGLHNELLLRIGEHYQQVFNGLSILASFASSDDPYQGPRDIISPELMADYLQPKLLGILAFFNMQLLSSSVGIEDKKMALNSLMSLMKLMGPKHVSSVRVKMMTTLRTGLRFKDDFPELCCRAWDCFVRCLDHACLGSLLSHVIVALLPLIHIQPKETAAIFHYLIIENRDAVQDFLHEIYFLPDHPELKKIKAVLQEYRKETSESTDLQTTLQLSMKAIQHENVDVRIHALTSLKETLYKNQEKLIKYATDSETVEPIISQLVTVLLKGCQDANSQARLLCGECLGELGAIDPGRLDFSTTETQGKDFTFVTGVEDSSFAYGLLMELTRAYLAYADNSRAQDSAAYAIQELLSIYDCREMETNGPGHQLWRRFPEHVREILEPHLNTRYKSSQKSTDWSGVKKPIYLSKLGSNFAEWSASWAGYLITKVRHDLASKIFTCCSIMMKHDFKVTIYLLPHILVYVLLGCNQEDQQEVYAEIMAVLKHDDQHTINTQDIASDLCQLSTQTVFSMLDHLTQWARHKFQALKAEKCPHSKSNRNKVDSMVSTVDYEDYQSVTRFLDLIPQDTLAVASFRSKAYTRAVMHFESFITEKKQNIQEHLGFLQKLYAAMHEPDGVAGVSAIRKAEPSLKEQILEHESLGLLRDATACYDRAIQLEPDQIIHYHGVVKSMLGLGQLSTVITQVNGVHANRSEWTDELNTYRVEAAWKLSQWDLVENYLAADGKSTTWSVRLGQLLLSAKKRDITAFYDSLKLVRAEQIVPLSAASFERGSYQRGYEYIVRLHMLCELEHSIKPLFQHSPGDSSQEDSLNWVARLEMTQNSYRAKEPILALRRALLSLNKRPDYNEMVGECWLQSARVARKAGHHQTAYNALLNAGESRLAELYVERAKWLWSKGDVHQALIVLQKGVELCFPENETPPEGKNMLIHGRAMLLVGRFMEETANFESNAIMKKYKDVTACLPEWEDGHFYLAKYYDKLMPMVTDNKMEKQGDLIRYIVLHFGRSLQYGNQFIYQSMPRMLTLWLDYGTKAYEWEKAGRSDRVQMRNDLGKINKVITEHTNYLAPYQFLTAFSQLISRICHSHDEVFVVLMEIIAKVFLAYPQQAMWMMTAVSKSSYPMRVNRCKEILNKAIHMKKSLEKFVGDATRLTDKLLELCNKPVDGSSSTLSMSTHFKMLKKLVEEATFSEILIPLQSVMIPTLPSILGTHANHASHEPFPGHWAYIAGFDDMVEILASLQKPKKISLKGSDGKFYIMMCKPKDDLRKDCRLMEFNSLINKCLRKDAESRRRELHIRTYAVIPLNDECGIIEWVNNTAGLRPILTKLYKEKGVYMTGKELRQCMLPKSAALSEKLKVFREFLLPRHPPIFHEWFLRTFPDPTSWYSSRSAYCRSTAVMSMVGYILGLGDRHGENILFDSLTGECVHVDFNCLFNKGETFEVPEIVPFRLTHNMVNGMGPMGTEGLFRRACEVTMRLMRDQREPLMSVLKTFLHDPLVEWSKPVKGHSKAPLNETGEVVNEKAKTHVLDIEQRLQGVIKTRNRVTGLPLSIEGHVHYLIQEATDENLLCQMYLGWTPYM
Sequence of ATR/ATRIP (human) (Q8WXE1 whole entry partner): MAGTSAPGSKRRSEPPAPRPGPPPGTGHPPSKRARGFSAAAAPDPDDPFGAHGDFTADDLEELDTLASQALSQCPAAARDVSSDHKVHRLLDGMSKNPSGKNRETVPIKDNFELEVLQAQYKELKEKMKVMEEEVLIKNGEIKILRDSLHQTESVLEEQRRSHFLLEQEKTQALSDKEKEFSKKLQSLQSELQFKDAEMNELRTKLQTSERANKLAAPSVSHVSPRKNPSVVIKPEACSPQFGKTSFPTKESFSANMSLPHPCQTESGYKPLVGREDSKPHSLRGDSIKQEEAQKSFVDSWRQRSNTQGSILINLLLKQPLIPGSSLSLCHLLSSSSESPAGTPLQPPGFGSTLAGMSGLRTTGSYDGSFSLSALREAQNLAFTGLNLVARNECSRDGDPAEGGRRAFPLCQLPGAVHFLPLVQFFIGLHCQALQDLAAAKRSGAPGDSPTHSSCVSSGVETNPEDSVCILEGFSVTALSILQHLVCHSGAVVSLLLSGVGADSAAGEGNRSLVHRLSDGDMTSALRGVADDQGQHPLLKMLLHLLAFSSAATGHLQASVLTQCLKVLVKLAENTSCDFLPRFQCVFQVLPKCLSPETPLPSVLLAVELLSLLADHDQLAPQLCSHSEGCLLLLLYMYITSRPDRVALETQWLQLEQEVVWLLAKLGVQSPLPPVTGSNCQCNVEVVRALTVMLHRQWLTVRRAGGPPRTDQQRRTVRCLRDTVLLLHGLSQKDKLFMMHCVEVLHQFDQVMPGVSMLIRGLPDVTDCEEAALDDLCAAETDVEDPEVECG

| Compound | IC50 [µM] |
| --- | --- |
| COc1nnc2ccc(N3CCC(c4ccc(OCCN5CCN(C)C(=O)[C@H]5C)cc4)CC3)nn12 [AZD5153] | > 10 |
| Cc1sc2c(c1C)C(c1ccc(Cl)cc1)=N[C@@H](CC(=O)OC(C)(C)C)c1nnc(C)n1-2 [JQ1] | > 10 |
